Laboratory results as given in patent EP0429153A1, “Novel agroclavine and elymoclavine derivatives, processes for their preparation and their use in medicinal preparations” (SCHERING AKTIENGESELLSCHAFT, priority 1989, dated 1991).

System: männliche Wistar-Ratten
Experiment: Induction of stereotypies in rats, automatic registration (method of Horowski)
Assay type: in vivo
Details: intraperitoneal, 60 minutes, n = 12
Excerpt: Die dopaminagonistische Wirkung wurde mit Hilfe der von Horowski beschriebenen Methode der automatischen Registrierung von Stereotypien an Ratten bestimmt (Arzneim. Forsch. 12, 2281-2286, 1978): Unmittelbar nach intraperitonealer Prüfsubstanz- bzw. Vehikelverabreichung werden männliche Wistar-Ratten (90-120 g) einzeln in Zwangskäfige aus Acrylglas gesetzt. Uber ein vor dem Kopf der Tiere angebrachtes elektrodynamisches Aufnahmesystem wird die Zahl der Kontakte an einem stählernen Becher mit einem zentralen Metallstab als Folge der stereotypen Kau-, Leck- und Nagebewegungen während 60 Minuten registriert. Die Mittelwerte ± S.E.M. der Anzahl der Kontakte während 60 Minuten für die verschiedenen Behandlungsgruppen, die mit jeweils 12 Tieren besetzt sind, werden berechnet und die Signifikanz der Unterschiede zwischen den Mittelwerten der verschiedenen Prüfsubstanzdosen im Vergleich zur Vehikel-behandelten Kontrollgruppe mit Hilfe der einfachen Varianzanalyse in Verbindung mit dem Dunnett-Test ermittelt.

[1] = Prüfsubstanzdosis 0.025 (dose unit not given)
[2] = Prüfsubstanzdosis 0.1 (dose unit not given)
[3] = Prüfsubstanzdosis 0.39 (dose unit not given)
[4] = Prüfsubstanzdosis 1.56 (dose unit not given)

Row | Structure (SMILES) | Stereotypien (counts pro 60 Minuten) Mittelwert ± S.F.M.) [1] | Stereotypien (counts pro 60 Minuten) Mittelwert ± S.F.M.) [2] [xx counts pro 60 Minuten] | Stereotypien (counts pro 60 Minuten) Mittelwert ± S.F.M.) [3] [xx counts pro 60 Minuten] | Stereotypien (counts pro 60 Minuten) Mittelwert ± S.F.M.) [4] [xx counts pro 60 Minuten] | Stereotypien (counts pro 60 Minuten) Mittelwert ± S.F.M.) (Prüfsubstanzdosis 6.25 (dose unit not given)) [xx counts pro 60 Minuten]
1 | CCCN1CC(C)=C[C@@H]2c3cccc4[nH]c(C)c(c34)C[C@H]21 [CH3 / CH2CH2CH3] | 4726 ± 1148xx counts pro 60 Minuten | 7601 ± 1182 | 9200 ± 672 | 10150 ± 598 | 
2 | CCCN1CC(C)=C[C@@H]2c3cccc4[nH]c(Cl)c(c34)C[C@H]21 [Cl / CH2CH2CH3] | 2091 ± 394 counts pro 60 Minuten | 6470 ± 1018 | 7364 ± 927 | 8837 ± 699 | 10397 ± 1126
